Reference: US12410133B2, “Crystalline (r)-5-carbamoylpyridin-3-yl-2-methyl-4-(3-(trifluoromethoxy)benzyl)piperazine-1-carboxylate, compositions and methods of use thereof” (Celgene Corporation, priority 2018, dated 2025)
Values after ≈ are worked out from the molar mass of the structure shown.

Assays:
Assay type in all cases: physicochemical
[1] = Interconversion study: competitive slurry of Form A and B; settings: competitive slurry, H2O/PhMe, 1-3 weeks
Protocol: An interconversion study of crystal forms was performed. To understand the thermodynamic stability relationship between Form A and B, competitive slurry experiments were performed at RT and 50° C. in water and toluene. Prior to the study, Form A was used to saturate the corresponding solvent before it was filtered to obtain a near-saturated solution. Equal amounts of Form A and B samples were weighed and then mixed with the prepared near-saturated solution to form a new suspension, which was stirred magnetically (˜1000 rpm) at RT and 50° C.

[2] = Visual solubility assessment of Form B at room temperature; settings: organic solvent or mixture, thermodynamic from solid
Protocol: Approximately 55 to 90 mg of Form B was added into a 4 mL glass vial. Solvent list in Table 18 was added into each of the vial. These samples were stirred for 3 minutes prior to visual solubility assessment.

[3] = Solubility of Form B in FaSSIF-v2 and FeSSIF-v2 at 37° C.; settings: for Final Form: residual solid by XRPD, 2 hr
Protocol: Solubility of Form B was evaluated at 2 hr for Form B in FaSSIF-v2 and FeSSIF-v2 at 37° C. Approximately 10 to 20 mg of Form B sample was added in 0.8 mL of corresponding bio-relevant medium to form a suspension, followed by shaking at 500 rpm at 37° C. After 2 hr, the supernatants were isolated by centrifugation (7200 rpm for 5 min) followed by filtration through […] PTFE membrane and were tested by HPLC concentration and pH. The residual solids were characterized by XRPD. As summarized in Table 17, Form B converted to a new form (Form C) after solubility evaluation, while the solubility in FaSSIF-v2 and FeSSIF-v2 was measured to be 0.12 and 0.080 mg/mL, respectively.

Compound | Final Form ([1]; 50° C.) | Final Form ([1]; RT) | solubility at 3 min ([2]; 2-Me THF, room temperature) | solubility at 3 min ([2]; 2-Propanol, room temperature) | solubility at 3 min ([2]; Acetone, room temperature) | solubility at 3 min ([2]; Acetonitrile, room temperature) | solubility at 3 min ([2]; Dichloromethane, room temperature) | solubility at 3 min ([2]; EtOH, room temperature) | solubility at 3 min ([2]; Ethyl Acetate, room temperature) | solubility at 3 min ([2]; H2O/MeCN 1/3 (v/v) Aw~0.9, room temperature) | solubility at 3 min ([2]; H2O/MeOH 1/3 (v/v) Aw~0.5, room temperature) | solubility at 3 min ([2]; Isopropyl Acetate, room temperature) | solubility at 3 min ([2]; Nitromethane, room temperature) | solubility at 2 h ([3]; FaSSIF-v2, thermodynamic from solid, FaSSIF (pH 6.5), final pH 6.6) | solubility at 2 h ([3]; FeSSIF-v2, thermodynamic from solid, FeSSIF (pH 5.8), final pH 5.9) | Final Form ([3]; FaSSIF (pH 6.5)) | Final Form ([3]; FeSSIF (pH 5.8))
C[C@@H]1CN(Cc2cccc(OC(F)(F)F)c2)CCN1C(=O)Oc1cncc(C(N)=O)c1 [Form A + B, (R)-5-carbamoylpyridin-3-yl-2-methyl-4-(3-(trifluoromethoxy)benzyl)piperazine-1-carboxylate] | Form A | Form A |  |  |  |  |  |  |  |  |  |  |  |  |  |  | 
C[C@@H]1CN(Cc2cccc(OC(F)(F)F)c2)CCN1C(=O)Oc1cncc(C(N)=O)c1 [Form B, (R)-5-carbamoylpyridin-3-yl-2-methyl-4-(3-(trifluoromethoxy)benzyl)piperazine-1-carboxylate] |  |  | > 810 mg/mL | > 365 mg/mL | > 430 mg/mL | > 720 mg/mL | > 830 mg/mL | > 800 mg/mL | > 800 mg/mL | > 730 mg/mL | > 780 mg/mL | < 810 mg/mL | > 560 mg/mL | 120 µg/mL (≈ 0.274 mM) | 80 µg/mL (≈ 0.182 mM) | Form C | Form C
